# Measured values from publication PMC11436757, “BRCA2 stabilises RAD51 and DMC1 nucleoprotein filaments through a conserved interaction mode” (Nature Communications, 2024).
# “Also recorded” adds a separate entry of the source. No end group written: not given here.
# Tests used:
# DMC1 ΔN F85E = experiment: Amylose pull-down of His-DMC1 ΔN F85E (monomeric) with MBP-BRCA2 fusions; assay type: binding, human; settings: lysates mixed; MBP-BRCA2 fusion; 20 mM Tris pH 8.0, 500 mM KCl, 2 mM DTT
# Method: For affinity experiments involving DMC1 ΔN V179E and F85E, MBP-fusions of BRCA2 fragments (Ex14, amino-acids 2387-2420, Ex14-Tr, amino acids 2401-2414, BRC4, amino acids 1519-1551) were cloned into pMAT11 vectors and DMC1 ΔN mutants (V179E or F85E) were cloned into pHAT4 vectors. Lysates of bacterial cultures expressing His6-DMC1 mutants or MBP-BRCA2 constructs were mixed, and complexes were purified through amylose affinity chromatography in 20 mM Tris pH 8.0, 500 mM KCl, 2 mM DTT and eluted using 30 mM D-maltose.
# [1] = system: DMC1 V179E-ssDNA filaments; experiment: EMSA, super-shift of filaments formed using DMC1 V179E; assay type: biochemical, human
# Method: (§1) To form nucleoprotein filaments, DMC1 and RAD51 was incubated with fluorescent 100-base ssDNA (5’-FAM- […]-3’) at the concentrations indicated in the figures for 30 minutes at 4 °C in reaction buffer. For DMC1, reaction buffer is 25 mM TEA (triethanolamine) pH 7.5, 1 mM ATP, 2 mM MgCl2, 0.1 mg/ml BSA, 2 mM DTT, 200 mM KCl. For RAD51, reaction buffer is 50 mM TEA (triethanolamine), 2 mM ATP, 0.5 mM MgCl2, 2 mM DTT. For assays requiring incomplete nucleoprotein filament assembly, the reaction buffer consisted of 50 mM TAE (tris, acetate, EDTA) pH 7.5, 2 mM ATP, 2 mM MgCl2, 2 mM DTT. In nucleoprotein formation stimulation assays or supershift experiments, BRCA2Ex14 or BRCA2Ex14-AAA were added for a further 30 min at 4 °C. […] Glycerol was added at a final concentration of 3%, and samples were analysed by electrophoresis on a 1% (w/v) (for DMC1) or 0.66% (w/v) (for RAD51) agarose gel in 0.5x TAE pH 8.0 at 20–40 V for ~4 h at 4 °C. DNA was detected by FAM using a Typhoon^TM FLA 9500 (GE Healthcare), with 473 nm laser at excitation wavelength 490 nm and emission wavelength 520 nm, using the LPB filter and a PMT voltage of 500 V. To analyse RAD51 nucleoprotein filaments assembled upon 100-base poly(dT) ssDNA, gels were stained post-run using SYBR^TM Gold Nucleic Acid Gel Stain (Invitrogen) and detected using a Typhoon^TM FLA 9500 (GE Healthcare).
# [2] = system: RAD51-ssDNA (polydT) filaments; experiment: EMSA, protection of RAD51-ssDNA (polydT) filaments from BRC4-mediated disruption; assay type: biochemical
# Method: as §1
Substance,binding in pull-down (DMC1 ΔN F85E),super-shift of DMC1 V179E-ssDNA filaments [1],"protection of RAD51-ssDNA (polydT) filaments from BRC4-mediated disruption ([2]; 3-fold excess of Ex27 (33 μM), 10-fold excess of BRC4)","protection of RAD51-ssDNA (polydT) filaments from BRC4-mediated disruption ([2]; 100-nt polydT, 10-fold excess of Ex27)","protection of RAD51-ssDNA filaments from BRC4-mediated disruption ([2]; equimolar Ex27 (11 µM), 10-fold excess of BRC4)"
ATRNEKMRHLITTGRPTKVFVPPFKTKSHFHRVE [Ex14],failed to interact; also recorded: no interaction,The residual super-shift was the same; also recorded: only minimal super-shift,,,
"Ex27: BRCA2 exon 27 PhePP peptide, amino acids 3270-3315 (ALDFLSRLPLPPPVSPICTFVSPAAQKAFQPPRSCGTKYETPIKKK; UniProt P51587 3270-3315, looked up, fragment)",,,some protection; also recorded: protection at a 3-fold excess,protects; also recorded: full protection; also recorded: complete protection,no protection
